{"source": "ChEMBL document CHEMBL1201862", "about": "“PubChem BioAssay data set” (2004)", "key": {"[1]": {"biological_target": "Metabotropic glutamate receptor 3 (Rattus norvegicus, UniProt P31422)", "sequence (P31422 whole entry)": "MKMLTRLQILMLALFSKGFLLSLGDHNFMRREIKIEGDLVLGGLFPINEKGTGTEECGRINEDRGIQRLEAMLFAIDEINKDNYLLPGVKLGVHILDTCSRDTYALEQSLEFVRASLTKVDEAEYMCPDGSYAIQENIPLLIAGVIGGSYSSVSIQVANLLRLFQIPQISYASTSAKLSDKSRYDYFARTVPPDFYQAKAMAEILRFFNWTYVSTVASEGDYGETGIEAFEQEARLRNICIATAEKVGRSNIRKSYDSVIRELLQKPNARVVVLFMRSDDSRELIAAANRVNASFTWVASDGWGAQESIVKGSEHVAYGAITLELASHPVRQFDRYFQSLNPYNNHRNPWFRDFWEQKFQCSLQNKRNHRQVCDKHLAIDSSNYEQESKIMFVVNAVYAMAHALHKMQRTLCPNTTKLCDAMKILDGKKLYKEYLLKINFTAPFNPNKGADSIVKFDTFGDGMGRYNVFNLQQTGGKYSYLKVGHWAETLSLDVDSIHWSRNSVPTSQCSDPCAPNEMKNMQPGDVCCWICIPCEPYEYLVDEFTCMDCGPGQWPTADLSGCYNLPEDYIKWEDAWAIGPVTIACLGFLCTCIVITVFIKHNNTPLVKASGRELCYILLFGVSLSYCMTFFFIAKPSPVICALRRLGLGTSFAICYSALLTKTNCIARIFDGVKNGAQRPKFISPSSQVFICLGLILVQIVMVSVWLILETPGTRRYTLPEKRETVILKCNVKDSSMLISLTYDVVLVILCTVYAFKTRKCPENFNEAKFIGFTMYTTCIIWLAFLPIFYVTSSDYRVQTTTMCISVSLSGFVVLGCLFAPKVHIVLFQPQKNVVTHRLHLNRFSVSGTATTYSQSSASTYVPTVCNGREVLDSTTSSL", "assay": "inhibition of rat mGlu3 glutamate signaling – HEK/GIRK cells, thallium flux, dose response (AID 651839)", "format": "functional"}, "[2]": {"biological_target": "Endoplasmic reticulum aminopeptidase 1 (Homo sapiens, UniProt Q9NZ08)", "sequence (Q9NZ08 whole entry)": "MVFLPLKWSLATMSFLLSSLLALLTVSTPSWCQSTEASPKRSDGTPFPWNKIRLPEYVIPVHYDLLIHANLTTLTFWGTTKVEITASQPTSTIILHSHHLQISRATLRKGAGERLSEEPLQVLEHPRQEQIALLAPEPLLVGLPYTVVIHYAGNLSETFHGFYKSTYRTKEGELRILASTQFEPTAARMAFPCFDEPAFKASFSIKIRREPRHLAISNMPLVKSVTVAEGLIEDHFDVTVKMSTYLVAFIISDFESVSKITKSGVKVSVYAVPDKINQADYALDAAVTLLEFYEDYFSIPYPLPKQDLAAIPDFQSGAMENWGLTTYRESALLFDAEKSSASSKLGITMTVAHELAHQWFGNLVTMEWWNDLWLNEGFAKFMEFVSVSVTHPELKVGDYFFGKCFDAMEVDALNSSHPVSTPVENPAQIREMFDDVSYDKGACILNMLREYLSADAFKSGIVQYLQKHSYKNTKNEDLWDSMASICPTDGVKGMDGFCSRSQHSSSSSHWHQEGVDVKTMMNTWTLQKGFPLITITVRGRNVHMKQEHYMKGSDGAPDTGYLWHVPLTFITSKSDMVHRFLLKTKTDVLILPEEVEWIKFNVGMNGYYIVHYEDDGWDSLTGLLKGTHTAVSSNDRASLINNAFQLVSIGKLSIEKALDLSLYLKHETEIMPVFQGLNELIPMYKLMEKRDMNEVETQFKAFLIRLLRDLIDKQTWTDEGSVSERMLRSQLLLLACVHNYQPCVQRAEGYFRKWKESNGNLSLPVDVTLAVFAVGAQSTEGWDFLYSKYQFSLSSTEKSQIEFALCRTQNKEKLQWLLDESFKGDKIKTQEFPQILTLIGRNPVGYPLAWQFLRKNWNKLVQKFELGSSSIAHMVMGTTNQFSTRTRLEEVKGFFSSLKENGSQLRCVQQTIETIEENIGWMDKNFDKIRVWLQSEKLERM", "assay": "inhibition of human ERAP1 enzyme activity – biochemical, cherry-pick, set 2, plate reader, dose response (AID 743314)"}, "[3]": {"biological_target": "Disintegrin and metalloproteinase domain-containing protein 17 (Homo sapiens, UniProt P78536)", "sequence (P78536 whole entry, the tested form may be a part)": "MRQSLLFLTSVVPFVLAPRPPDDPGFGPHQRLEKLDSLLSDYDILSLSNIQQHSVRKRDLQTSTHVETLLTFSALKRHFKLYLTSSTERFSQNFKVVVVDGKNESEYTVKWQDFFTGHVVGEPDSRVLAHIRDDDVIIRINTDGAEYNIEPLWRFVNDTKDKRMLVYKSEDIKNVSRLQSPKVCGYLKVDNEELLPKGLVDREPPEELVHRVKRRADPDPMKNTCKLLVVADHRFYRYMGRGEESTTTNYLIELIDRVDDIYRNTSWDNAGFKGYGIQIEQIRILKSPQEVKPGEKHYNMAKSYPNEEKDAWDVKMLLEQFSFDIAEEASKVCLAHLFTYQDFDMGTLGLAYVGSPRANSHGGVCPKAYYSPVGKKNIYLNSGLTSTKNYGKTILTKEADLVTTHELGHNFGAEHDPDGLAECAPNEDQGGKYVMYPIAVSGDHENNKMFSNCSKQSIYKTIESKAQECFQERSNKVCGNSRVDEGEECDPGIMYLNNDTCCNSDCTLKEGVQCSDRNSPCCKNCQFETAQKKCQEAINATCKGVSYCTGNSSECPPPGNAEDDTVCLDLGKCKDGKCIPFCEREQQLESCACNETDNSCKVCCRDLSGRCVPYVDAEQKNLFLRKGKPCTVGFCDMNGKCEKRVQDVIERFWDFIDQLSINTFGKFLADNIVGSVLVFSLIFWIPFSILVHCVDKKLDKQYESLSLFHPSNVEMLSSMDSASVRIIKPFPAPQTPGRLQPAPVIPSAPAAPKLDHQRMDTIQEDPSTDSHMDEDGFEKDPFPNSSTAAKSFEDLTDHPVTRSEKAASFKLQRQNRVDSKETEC", "assay": "exosite inhibitors of ADAM17, dose response, biochemical (AID 743260)"}, "[4]": {"assay": "inhibition of ADAM10 peptide cleavage – biochemical, FRET peptide substrate, recombinant human ADAM10, selectivity assay for ADAM17 exosite inhibitor project, dose response (AID 743259)"}, "cells": {"assay": "cells", "format": "functional, cell-based", "conditions": "HEK-CNG"}, "Galanin receptor type 3": {"biological_target": "Galanin receptor type 3 (Homo sapiens, UniProt O60755)", "sequence (O60755 whole entry)": "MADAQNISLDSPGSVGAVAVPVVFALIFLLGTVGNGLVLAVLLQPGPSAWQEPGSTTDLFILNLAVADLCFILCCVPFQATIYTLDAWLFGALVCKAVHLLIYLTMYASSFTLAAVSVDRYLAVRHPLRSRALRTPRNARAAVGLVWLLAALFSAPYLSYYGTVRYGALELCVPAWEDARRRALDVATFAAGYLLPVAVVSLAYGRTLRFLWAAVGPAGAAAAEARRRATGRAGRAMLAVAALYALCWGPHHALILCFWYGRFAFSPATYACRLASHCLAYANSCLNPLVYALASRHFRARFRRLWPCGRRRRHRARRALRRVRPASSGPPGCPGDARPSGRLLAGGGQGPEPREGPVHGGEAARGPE", "assay": "Fluorescence-based cell-based primary high throughput dose response assay to identify antagonists of the Galanin Receptor 3 (GalR3).", "format": "functional"}, "[5]": {"assay": "general mammalian cell viability loss – inhibitor set, cherry-pick, set 2, cytotoxicity control for miR-122 modulator project, dose response (AID 720697)", "format": "functional, cell-based"}, "[6]": {"assay": "activation of miR-122 Renilla sensor silencing – cell-based, Huh7 psiCHECK-miR122, Renilla luciferase, cherry-picked, dose response (AID 651956);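 also: huh7 hepatoma cells stably carrying a psiCHECK-2 miR-122 sensor plasmid; renilla luciferase signal reporting endogenous miR-122 activity after 48 h compound exposure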", "format": "functional"}, "[7]": {"assay": "general mammalian cell viability loss – activator set, cherry-pick, cytotoxicity control for miR-122 modulator project, dose response (AID 720690);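 also: HEK293T human cells scored for general mammalian cytotoxicity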", "format": "functional, cell-based"}, "Cryptococcus neoformans [8]": {"system": "Cryptococcus neoformans", "assay": "Cryptococcus growth inhibition by alamar blue – cell lysis, cherry-picks, replicate tests, mechanism study for C. neoformans antifungal project, dose response (AID 686999)", "format": "functional, organism-based"}, "Cryptococcus neoformans [9]": {"system": "Cryptococcus neoformans", "assay": "PubChem AID 686997", "format": "functional, organism-based"}}, "note": "Calls of active or inactive are those of the source.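 For EC50 in this document: target is galanin receptor GalR3 read with a cAMP biosensor in HEK293 cells.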"}
{"smiles": "COc1ccc(C#Cc2ccc(C(=O)N3CCC[C@@H](CO)C3)cc2)c(F)c1", "values": [{"measurement": "IC50", "setting": "[1]", "value": 4.92, "unit": "µM"}]}
{"smiles": "CC1CCN(Cc2cc(=O)oc3cc(O)c(Cl)cc23)CC1", "values": [{"measurement": "AC50", "setting": "[2]", "value": "6.33 µM (active)"}]}
{"smiles": "CCOC(=O)CC(SP1(=S)OCC2(CCCCO2)C(C2CCCCO2)O1)C(=O)OCC", "note": "(stereo unspecified)", "values": [{"measurement": "IC50", "setting": "[3]", "value": "32.8 µM (inactive)"}, {"measurement": "IC50", "setting": "[4]", "value": "56.3 µM (inactive)"}]}
{"smiles": "CC1(CSc2ccccc2)CC(=O)N1", "note": "(stereo unspecified)", "values": [{"measurement": "EC50", "setting": "cells", "value": "> 29.9 µM (inactive)"}, {"measurement": "IC50", "setting": "Galanin receptor type 3", "value": "> 29.9 µM (inactive)"}]}
{"smiles": "C[C@H](CO)N1C[C@H](C)[C@H](CN(C)CC2CCCCC2)Oc2ccc(NC(=O)Nc3ccc(C(F)(F)F)cc3)cc2C1=O", "values": [{"measurement": "AC50", "setting": "[5]", "value": "15.1 µM (active)"}, {"measurement": "AC50", "setting": "[6]", "value": "31.5 µM (active)"}, {"measurement": "AC50", "setting": "[7]", "value": "17.1 µM (active)"}]}
{"smiles": "COC(=O)C1=C(C)N(Cc2ccccc2)C(=S)NC1c1ccc(Br)cc1", "note": "(stereo unspecified)", "values": [{"measurement": "AC50", "setting": "Cryptococcus neoformans [8]", "value": "35 µM (active)"}, {"measurement": "AC50", "setting": "Cryptococcus neoformans [9]", "value": "25 µM (active)"}]}
